The subject of data set [1] is MC3T3-E1 cells. The data set can be described thus: ELISA of OPG and RANK-L secreted into the medium of MC3T3 cells. The format is cell-based, Murine. The text has this: FIG. 9, Panel A contains representative images of ALP staining in […] cells treated with BDNF or 7,8-DHF combined with or without K252a for 14 days (n=3 independent experiments) (Scale bar, 5 mm (upper panel), 200 μm (lower panel)). […] FIG. 9, Panel C contains Western blots for MC3T3 cells cultured in complete medium or osteogenic induction medium (OIM) with BDNF or 7,8 DHF combined with or without K252a for 4 days. […] FIG. 9, Panel D contains graphs of the relative protein levels of C/EBPP, p-C/EBPβ, AEP, RANK-L, OPG, Osterix, p-TrkB/TrkB and p-Akt/AKT in MC3T3 cells cultured in the complete medium or OIM with BDNF or 7,8-DHF combined with or without K252a for four days. Data are shown as mean±SEM of three independent experiments, one-way ANOVA. Data are shown in each graph from left to right as 1) Control, 2) OIM+DMSO, 3) OIM+BDNF, 4) OIM+7,8-DHF, 5) OIM+BDNF+K252a, and 6) OIM+7,8-DHF+K252a. FIG. 9, Panel E contains graphs of an AEP enzymatic activity assay. BDNF and 7,8-DHF inhibit AEP activities, and K252a abolish BDNF and 7,8-DHF's effects. Data are shown as mean±SEM of 3 independent experiments, one-way ANOVA. Data are shown in each graph from left to right as 1) Control, 2) OIM+DMSO, 3) OIM+BDNF, 4) OIM+7,8-DHF, 5) OIM+BDNF+K252a, and 6) OIM+7,8-DHF+K252a. FIG. 9, Panel F contains graphs of qPCR results showing that OPG mRNA expression increases in MC3T3 cells after 7,8-DHF treatment for four days. Data are shown as mean±SEM of three independent experiments, one-way ANOVA. Data are shown in each graph from left to right as 1) Control, 2) OIM+DMSO, 3) OIM+BDNF, 4) OIM+7,8-DHF, 5) OIM+BDNF+K252a, and 6) OIM+7,8-DHF+K252a. FIG. 9, Panel G contains graphs showing that 7,8-DHF increases OPG and decreases the RANK-L/OPG ratio. Levels of OPG and RANK-L proteins secreted into the medium were measured by ELISA. Data are shown as mean±SEM of 3 independent experiments, one-way ANOVA. Data are shown in each graph from left to right as 1) Control, 2) OIM+DMSO, 3) OIM+BDNF, 4) OIM+7,8-DHF, 5) OIM+BDNF+K252a, and 6) OIM+7,8-DHF+K252a.

For data set [2], the system named is MC3T3-E1 cells. The format is cell-based, Murine.
For data set [3], the system named is MC3T3-E1 cells. Format: cell-based, Murine. The method, then:
Total RNA was isolated by TRIzol (Life Technologies, Carlsbad, Calif.). Reverse transcription was performed with SuperScript III reverse transcriptase (Life Technologies). Gene-specific primers and probes were designed and bought from Taqman (Life Technologies). All real-time PCR reactions were performed using the ABI 7500-Fast Real-Time PCR System and the Taqman Universal Master Mix Kit (Life Technologies). The relative quantification of gene expression was calculated using the ΔΔCt method. Predesigned real-time PCR primers from Applied Biosystems (Waltham, Mass.) were used for the analysis of Opg (Tnfrsf11b; Mm0043545_m1), RANK-L (Tnfsf11; Mm00441908_m1), AEP (Lgmn; Mm01325350_m1), GAPDH (Gapdh; Mm99999915_g1).
This is another data set of the same source.

In the next data set the test system is AEP. As to the kind of experiment: AEP activity assay on MC3T3-E1 cell lysates. The format is cell-based, Murine. The method, then:
Cell lysates (10 μg) were incubated in 200 μl assay buffer (20 mM citric acid, 60 mM Na2HPO4, 1 mM EDTA, 0.1% CHAPS, and 1 mM DTT, pH 6.0) containing 20 μM δ-secretase substrate Z-Ala-Ala-Asn-AMC (Bachem, Bubendorf, Switzerland). AMC released by substrate cleavage was quantified by measuring at 460 nm in a fluorescence plate reader at 37° C. for 2 h in kinetic mode.

Data set [4] concerns ovariectomized (OVX) WT and BDNF+/− mice. Format: in vivo.
Data set [5] has the same test system. Format: in vivo. This is another data set of the same source.
The subject of data set [6] is ovariectomized (OVX) WT mice. As to the kind of experiment: H&E, TRAP staining and histomorphometry of distal femur in OVX WT mice, R13 versus anti-RANK-L antibody. The format is in vivo. Conditions: WT mice after OVX. The method, then:
(§1) Female C57BL6/J wild-type mice and BDNF+/−mice were obtained from Jackson Laboratory (MMRRC stock #000664 and 002267), then held and bred. The AEP knockout mice were generated on a mixed C57BL/6 and 129/Ola background. All in vivo experiments were carried out in female mice. All mice were kept under specific pathogen-free conditions in an environmentally controlled clean room and housed at 22° C. on a 12-h/12-h light/dark cycle. Food and water were provided ad lib. WT, BDNF+/−mice, AEP WT and AEP knockout mice were bilaterally ovariectomized or sham operated at 12 weeks of age. One week after ovariectomy, the WT and BDNF+/−mice received vehicle or R13 dissolved in 5% DMSO/0.5% methylcellulose at dose of 21.8 mg/kg/d, six days per week, for 8 weeks by gavage. In another group, 4 weeks after ovariectomy, WT mice were treated with IgG or anti-RANK-L monoclonal antibody (10 mg/kg, twice per week) by single subcutaneous injection for 4 weeks.
(§2) The measurements, indices and units for histomorphometric analysis were recommended by the Nomenclature Committee of the American Society of Bone and Mineral Research. Mice were injected with calcein (25 μg/g) subcutaneously at day 10 and day 3 before sacrifice. Bone histomorphometric analysis was performed at the University of Alabama at Birmingham Center for Metabolic Bone Disease-Histomorphometry and Molecular Analysis Core Laboratory. The Goldner's trichrome-stained plastic-embedded sections of calcein-double labeled femora of the mice were analyzed by an operator blinded as to the nature of the samples.
Representative data of double labeling of the trabecular bone in WT mice with OVX after R13 or anti-RANK-L antibody treatment are provided in FIG. 14, Panel C.

The subject of another data set is WT mice. Conditions: mouse, in vivo.
Data set [7] concerns ovariectomized (OVX) WT and BDNF+/− mice. The data set can be described thus: H&E, TRAP staining and quantitative bone histomorphometry of distal femur in OVX WT and BDNF+/− mice treated with R13. The format is in vivo. The method, then: as §1, §2
To further explore the roles of BDNF signaling in bone resorption and formation after OVX, hematoxylin and eosin (H&E) staining was conducted to analyze bone morphology and white edipocytes in both WT and BDNF+/−mice after OVX surgery. […] These observations were also validated by the single and double-labeled surface and inter-label thickness analysis (FIG. 7). […] Treatments with R13 inhibited N.Oc/BS in both WT and BDNF+/−mice after OVX.

Data set [8] deals with ovariectomized (OVX) WT mice. The data set can be described thus: Serum markers in OVX WT mice, R13 versus anti-RANK-L antibody. The format is in vivo. On the procedure:
as §1
Serum Osteocalcin (Novus Biologicals, Littleton, Colo., Cat. NBP2-68151), CTX (Immunodiagnostic systems, East Boldon, UK, Cat. AC-06F1), RANK-L and OPG (Abcam, Cat. ab269553 and ab203365) were measured by specific Elisa assays.
Given that R13 protects the bone by increase OPG, the RANK-L antibody was used as a comparator drug. Four weeks after ovariectomy, WT mice were treated with IgG or anti-RANK-L monoclonal antibody consecutively for 4 weeks.

Where [9] appears, read: OVX mice, R13 21.8 mg/kg orally, eight weeks, vs vehicle control.
[10] abbreviates: […], R13 21.8 mg/kg orally, eight weeks, compared to OVX group.
The mark [11] stands for this setting: OVX WT and BDNF+/− mice upon R13 treatment.
The mark [12] stands for this setting: among the groups regardless of the treatment.

“Also recorded” adds a separate entry of the source.

In the case of `COC(=O)[C@@]1(O)C[C@H]2O[C@]1(C)n1c3ccccc3c3c4c(c5c6ccccc6n2c5c31)C(=O)NC4` [K252a], the “RANK-L/OPG ratio in BDNF and 7,8-DHF groups under K252a” value in the data set on MC3T3-E1 cells [1] (K252a 100 nM pretreatment) is recorded as “highly augmented”. The “effects triggered by BDNF or 7,8-DHF (Western blot) under K252a” value in the data set on MC3T3-E1 cells [2] (K252a 100 nM pretreatment) was “potently blunted”. Moreover, in the data set on MC3T3-E1 cells [3] (K252a 100 nM pretreatment), the “BDNF/7,8-DHF-elevated RANK-L mRNAs under K252a” value was “not affected” and the “BDNF/7,8-DHF-promoted OPG mRNA levels under K252a” value is “abolished”. Moreover, the “BDNF and 7,8-DHF's effects on AEP activities under K252a” value in the data set with AEP (K252a 100 nM pretreatment) is reported as “abolish”.

Turning to `CNC(=O)Oc1ccc2c(=O)cc(-c3ccccc3)oc2c1OC(=O)NC` [R13, 4-oxo-2-phenyl-4H-chromene-7,8-diyl bis(methylcarbamate)], in [4] (OVX mice, both types, R13 21.8 mg/kg orally, eight weeks, vs OVX group), the “trabecular spacing (Tb.Sp)” value is listed as “decreased”. In data set [4] (setting [9]), the “trabecular number (Tb.N)” value is “higher” and the “trabecular thickness (Tb.Th)” value was “higher”. Also, in [4] (setting [10]), the “connectivity density (Conn.D)” value is “higher” and the “structure model index (SMI)” value is recorded as “lower”. Further, the “trabecular bone volume fraction (BV/TV)” value in data set [4] ([…], R13 21.8 mg/kg orally, six days per week for eight weeks, compared to OVX group) was “higher”. In addition, the bone density entry in data set [4] (after OVX, overall conclusion) is listed as “strongly increase”. For the same molecule, the “relative cortical bone area to tissue area (Ct.Ar/Tt.Ar)” value in data set [4] (among the groups, R13 21.8 mg/kg orally) is “remained unchanged”. In [4] (mouse, in vivo, po, 21.8 mg/kg), the “average cortical thickness (Ct.Th)” value is reported as “escalated” and the “cortical bone cortical area (Ct.Ar)” value is “escalated”. Also, in data set [5] (setting [11]), the “RANK-L/OPG ratio (serum)” value was “significant reduction” and the “serum OPG” value is listed as “substantially increased”. In addition, in data set [5] (R13-treated OVX mice compared to sham group), the “serum CTX levels” value was “higher”. Moreover, in data set [5] (R13-treated OVX mice compared with vehicle-treated sham group), the serum osteocalcin entry is “increased”. In addition, the “serum BDNF levels” value in data set [5] (among the groups) was “remained equivalent”. Further, in data set [6], the “OVX-induced osteoclast cells (TRAP staining)” value was “diminished”, the “trabecular bone marrow density (H&E staining)” value is reported as “increased” and the “white adipocyte contents in the bone (H&E staining)” value is given as “decreased”. Moreover, in data set [6] (distal femur trabecular bone), the BFR/BS entry is on record as “significantly increased” and the N.Oc/BS result is “decreased”. In addition, in the data set on WT mice, the BV/TV result was “elevated”, the Conn.D. entry was “no significant difference”, the Ct.Ar result is given as “no significant difference” and the Ct.Th entry was “no significant difference”. Further, in the data set on WT mice, the SMI entry is reported as “no significant difference”, the Tb.N entry is recorded as “no significant difference”, the Tb.Sp result is “no significant difference” and the Tb.Th result is on record as “no significant difference”. In addition, in the data set with WT mice, the “serum BDNF” value is “no significant difference”, the “serum CTX” value was “no significant difference”, the “serum OPG level” value is on record as “significantly increased” and the “serum RANK-L” value is on record as “without affecting; also recorded: no significant difference”. In the data set on WT mice, the “serum RANK-L/OPG ratio” value is “no significant difference” and the serum osteocalcin result was “no significant difference”. Moreover, the OVX-induced bone loss entry in data set [7] (R13 treatment) was “attenuated; also recorded: greatly blocks”. Also, in data set [7] (WT and BDNF+/− mice), the “OVX-induced osteoclast cells (TRAP staining)” value is recorded as “diminished”. Further, the N.Oc/BS entry in data set [7] (WT and BDNF+/− mice after OVX) was “inhibited”. Also, in data set [7] (after OVX, WT and BDNF+/− mice), the “adipocyte content in the bone (H&E staining)” value was “decreased” and the “trabecular bone tissue (H&E staining)” value is “increased”. For the same molecule, in data set [7] (after OVX, vehicle vs R13), the “bone formation rate (BFR)” value is “vehicle-treated mice exhibited lower MAR and BFR as compared to R13-treated mice”; the “mineral apposition rate (MAR)” value was “vehicle-treated mice exhibited lower MAR and BFR as compared to R13-treated mice”. Moreover, in data set [7] (setting [12]), the MS/BS ratio result is on record as “remained comparable” and the “percentage of surfaces covered by OCs (Oc.S/BS)” value was “remained comparable”. Further, in [7] (vehicle and R13-treated mice), the N.Ob/BS entry was “no significant differences” and the ObS/BS entry is recorded as “no significant differences”. Besides, in data set [8], the “serum OPG” value is given as “robustly elevated”, the “serum RANK-L” value is on record as “without altering” and the “serum RANK-L/OPG ratio” value was “significant reduction”.

For “BDNF: Brain-derived neurotrophic factor, a neurotrophin; TrkB ligand”, in the data set on MC3T3-E1 cells [1] (OIM, vs OIM alone), the “OPG protein secreted into the medium” value is listed as “further augmented”; the “RANK-L protein secreted into the medium” value is “further augmented”; the “RANK-L/OPG ratio (ELISA)” value was “OIM alone were significantly higher than BDNF and 7,8-DHF”. In the data set on MC3T3-E1 cells [2] (OIM, 4 days), the AEP expression result is given as “diminished”, the “OPG protein (Western blot)” value is “augmentation” and the “RANK-L protein (Western blot)” value is recorded as “augmentation”. Further, in the data set with MC3T3-E1 cells [3] (OIM, four days), the “OPG mRNA levels” value is given as “strong stimulatory effect” and the “RANK-L mRNA” value was “elevated”. Also, the AEP protease activities entry in the data set on AEP (MC3T3 cells in OIM, substrate Z-Ala-Ala-Asn-AMC) was “greatly blocked; also recorded: inhibit”.

The values above are taken from US20230046078A1, “METHODS OF USING SUBSTITUTED FLAVONES FOR TREATING BONE DISORDERS” (EMORY UNIVERSITY, priority 2021, published 2023).
